Results from US10077433B2, “Permuted and nonpermuted luciferase biosensors” (PROMEGA CORPORATION, priority 2006, dated 2018).

Tests used:
[1] = test system: intracellular cAMP, HEK-293 cells; test: Forskolin titration in HEK-293 cells transfected with CPM-hRL/RIIβB biosensor (201325.78.E5); assay type: cell-based
Protocol: 100 μl HEK-293 cells were plated in a 96 well plate and grown to 70-90% confluency in DMEM/F12 with HEPES buffer (Invitrogen) with 10% FBS at 37° C. with 5% CO2.
Cells were transfected with TransIt®-LT1 Reagent (MIRUS) using 0.3 μl TransIt®-LT1 reagent and 0.15 μg DNA (CPM-hRL/RIIβB cAMP biosensor with X/Y peptide linker lengths of (X=4, Y=20) (201325.78.E5)) per well of a 96-well plate. Cells were allowed to grow overnight and were assayed the next day.
Approximately 1 day after transfection, cells were removed from incubator and equilibrated to room temperature. A 10 μl aliquot of 600 μM EnduRen Live Cell Substrate (Promega) was added to a total of 100 μl of cell culture to give a final concentration of approximately 60 μM coelentrazine. Cells were then incubated at room temperature for at least 15 minutes. After 15 minutes at room temperature, baseline measurements of luminescence were measured using a 96-well Veritas Luminometer (Turner) at 0.5 seconds per well. Cells were then induced with 0.025 μM-250 μM forskolin (Sigma) or not induced (0.1% DMSO (Sigma)) and luminescence was measured continuously for about 30 minutes (FIG. 19). Samples were measured in sets of 5 replicates per concentration of forskolin. EC50s were calculated using GraphPad Prism for Windows, Version 4.

[2] = test system: intracellular cAMP, HEK293 cells; test: HEK293 cells stably expressing CP234-Luc/RIIB, forskolin stimulation and Z′ measurement; assay type: cell-based
Protocol: The ORF from pBFB135, under the class of biosensors called “CPM-FF Luc/RIIβB,” was used to generate the transient and stable cells lines described below. These cell lines are called “CP234-Luc/RIIB,” “cAMP LucSensor,” “LucSensor,” and “FF cAMP Sensor.”
HEK293 cells stably expressing CP234-Luc/RIIB (ORF derived from pBFB135) were resuspended in complete media and mixed with 5 mM luciferin-EF. Cells were plated at 1×10^5 cells per well in a 96 well plate and equilibrated to room temperature for 1.5 hours. After stimulation with forskolin, luminescence was measured at 15 minutes using a GloMax™ Luminometer.
For a Z′ measurement, 2×10^4 cells were aliquoted per well to a 384-well plate and equilibrated using a similar protocol. Half the plate was induced with […], whereas the other half remained uninduced. Luminescence was captured 15 minutes after induction using a TECAN GENios Pro™ luminometer. The fold of induction was 6.1 and Z′ was 0.83. Since assays with Z′ greater than 0.5 are considered good quality for high-throughput screening (HTS), the cAMP biosensor-based assay is amenable for HTS.

[3] = test system: intracellular cAMP concentration, HEK 293 cells; test: Intracellular cAMP changes in HEK 293 cells transiently transfected with CPM-FF Luc/RIIβB (pBFB141); assay type: cell-based; conditions: HEK 293 cells, pBFB141; 10 μM isopreterenol or 50 mM forskolin (so in the source), treatment alone, room temperature
Protocol: Cells were cultured in 60 ml in DMEM/F12 with HEPES buffer (Invitrogen) with 10% FBS at 37° C. with 5% CO2.
The ORF encoding the CPM-FF Luc/RIIβB based cAMP biosensor with X/Y linker lengths of (X=10, Y=0) was transferred to Flexi vector pF4K (Flexi vector system; Promega Corp.). The resultant plasmid construct (pBFB141) utilizes an upstream CMV promoter for expression of the associated cAMP biosensor in mammalian cells.
Cells were transfected with TransIt®-LT1 Reagent (MIRUS) using 0.3 μl TransIt®-LT1 reagent and 0.15 μg DNA per well of a 96 well plate. Cells were allowed to grow overnight and were assayed the next day.
Approximately 1 day after transfection, cells were removed from the incubator and equilibrated to room temperature. A 5 μl aliquot of 100 mM Luciferin EF was added to a total of 90 μl of cell culture plus transfection reagent to give a final concentration of approximately 5 mM luciferin. Cells were then incubated at room temperature for at least 90 minutes. After 90 minutes at room temperature, baseline measurements of luminescence were measured using a 96 well Veritas Luminometer (Turner Biosystems; integration time of 0.5 seconds per well). Cells were then induced with 10 μM isopreterenol (CalBiochem), 50 mM forskolin (Sigma) or not induced (0.1% DMSO, Sigma) and luminescence was measured continuously for about 30 minutes. After 30 minutes, […] (Sigma) was added to cells with isopreterenol and 0.1% DMSO was added to all other samples. Luminescence was then measured continuously for the next 30 minutes. A final addition of 50 μM forskolin was added to the isopreterenol/propranolol sample and 0.1% DMSO was added to all other samples. Luminescence was then measured continuously for the next half hour. Samples were measured in sets of 12 replicates. 10× stocks of isopreterenol, propranolol, forskolin and DMSO were made in 1×PBS (Invitrogen).

[4] = test system: intracellular cAMP concentration, HEK 293 cells; test: Intracellular cAMP changes in HEK293 cells with CPM-hRL Luc/RIIβB biosensors (isopreterenol, propranolol, forskolin); assay type: cell-based
Protocol: Cells were cultured in 2 mL DMEM/F12 with HEPES buffer (Invitrogen) and 10% FBS at 37° C. with 5% CO2 in a 6 well plate. Three of the constructs described in Example XVII were used to detect intracellular changes of cAMP concentrations. The constructs used were: pBFB277, pBFB279 and pBFB287. HEK293 cells stably expressing CPM91-hRL/RIIβB (ORF derived from 201325.44.H6 were also used in these experiments. HEK293 cells were transfected with TransIt®-LT1 Reagent (MIRUS) using 6 μL TransIt®-LT1 reagent and 2 μg DNA (pBFB277, pBFB279 and pBFB287) per well of a 6 well plate. Cells were allowed to grow overnight and were assayed the next day. Approximately 1 day after transfection, cells were trypsinized, resuspended in fresh DMEM/F12 with HEPES buffer (Invitrogen) with 1% FBS and plated in a 96 well plate at approximately 10,000 cells per well. Alternatively, a HEK293 cell line stably expressing CP91-hRL/RIIβB was plated in a 96 well plate at approximately 10,000 cells per well. A 10 μL aliquot of 600 μM EnduRen was added to a total of 100 μL of cell culture to give a final concentration of approximately […]. Cells were then incubated at 37° C. with 5% CO2. After 5 hours, the plate was removed from the incubator and allowed to cool to room temperature for at least 20 minutes. After 20 minutes, baseline measurements of luminescence were measured using a 96 well Veritas Luminometer (Turner Biosystems; integration time of 0.5 seconds per well). Cells were then induced with 10 μM isopreterenol (CalBiochem), 50 μM forskolin (Sigma) or not induced (0.1% DMSO, Sigma) and luminescence was measured continuously for about 30 minutes. After 30 minutes, 10 μM propranolol (Sigma) was added to cells already induced with isopreterenol and 0.1% DMSO was added to all other samples. Luminescence was then measured continuously for the next 30 minutes. A final addition of 50 μM forskolin was added to the isopreterenol/propranolol sample and 0.1% DMSO was added to all other samples. Luminescence was then measured continuously for the next half hour. Samples were measured in sets of 4-6 replicates. 10× stocks of isopreterenol, propranolol, forskolin and DMSO were made in DMEM/F12 with HEPES buffer (Invitrogen) and 1% FBS.

[5] = molecular target: T1, Akt1/PKB alpha recombinant enzyme (Homo sapiens, UniProt P31749); test: In vitro serine/threonine kinase sensor assay with Akt1/PKB; assay type: biochemical; conditions: 10 ng Akt1/PKB alpha, 30° C., 20 minutes
T1 construct: purchased Upstate Biotechnology
Protocol: Constructs pBFB335, 336, 338, 339, 340, 417, 418, 419, 422, 22 and 8 were tested in vitro using TNT® T7 Coupled Reticulocyte Lysate System (Promega Corp.). […] Luminescence was measured using a Turner 20/20N luminometer (Turner Biosystems; 1 second integration time). All samples were measured in triplicate. […]
The protocol for other Serine/Threonine kinase sensors is identical to the one above except that for the CPM hRL Luc samples, 5 μL of sample are added to a 96 well plate+5 μL 2× Renilla lysis buffer without detergents (150 mM HEPES, 100 mM Thiourea) and 100 μL Renilla Assay Reagent (Promega Corp.) is added by injectors using a Veritas Microplate Luminometer and luminescence is measured (Turner Biosystems; Bright-Glo program; 3 second integration time). FF Luc samples are measured by adding 100 μL of Luciferase Assay Reagent (LAR; Promega Corp.), to 5 μL of sample in a 96 well plate, by injectors using a Veritas Microplate Luminometer and luminescence measured (Turner Biosystems; Bright-Glo program; 3 second integration time).

[6] = CPM-FF Luc calcium biosensors, 10 mM CaCl2 or 10 mM EDTA plus 2.5 mM EGTA; assay type: biochemical; conditions: 10 mM CaCl2 vs 10 mM EDTA plus 2.5 mM EGTA
Protocol: Calcium biosensors were prepared by fusing sequences encoding a circularly permuted firefly luciferase having engineered N- and C-termini at residues 234 and 233, respectively, to sequences encoding protein domains that bind calcium. One type of calcium biosensor utilized a mutant of fast chicken skeletal muscle troponin C (TnC) (amino acids 15-163; N109D, D111N, N145D, D147N; Genbank NM_205450) [Met-(Luc2.0 234-544)-(Linker X)-(TnC)-(Linker Y)-(Luc2.0 4-233)-Val], and the second type of calcium biosensor utilized human calmodulin (CaM) (amino acids 5-148; Genbank BC005137) [Met-Luc+ (234-544)-(Linker X)-human Calmodulin (5-148)-(Linker Y)-Luc+ (4-233)].
CPM-FF Luc/TnC and CPM-FF Luc/CaM constructs with varying X/Y peptide linker lengths were expressed in vitro using the T7 Coupled Reticulocyte Lysate System (pBFB225, pBFB226, pBFB227, pBFB7; FIG. 24). Reactions were then supplemented with 10 mM CaCl2 or 10 mM EDTA plus 2.5 mM EGTA.

T1 sequence (P31749 whole entry): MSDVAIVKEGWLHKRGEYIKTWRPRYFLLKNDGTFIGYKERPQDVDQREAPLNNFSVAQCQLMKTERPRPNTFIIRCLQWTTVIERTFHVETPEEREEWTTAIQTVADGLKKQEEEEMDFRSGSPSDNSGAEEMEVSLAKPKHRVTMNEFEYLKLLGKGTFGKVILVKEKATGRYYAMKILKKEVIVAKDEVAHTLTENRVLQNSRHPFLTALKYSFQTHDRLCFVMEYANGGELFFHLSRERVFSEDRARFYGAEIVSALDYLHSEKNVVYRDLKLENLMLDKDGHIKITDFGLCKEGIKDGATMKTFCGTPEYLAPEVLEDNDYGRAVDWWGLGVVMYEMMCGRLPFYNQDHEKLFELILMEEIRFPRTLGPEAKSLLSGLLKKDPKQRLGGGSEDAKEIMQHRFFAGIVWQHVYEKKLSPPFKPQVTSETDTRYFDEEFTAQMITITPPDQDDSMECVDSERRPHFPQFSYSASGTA

Molecule	light output above that of untreated cells at maximal levels ([1]; CPM-hRL/RIIβB X=4, Y=20 (201325.78.E5)) [fold]	EC50 ([1]; Homo sapiens, HEK293, CPM-hRL/RIIβB X=4, Y=20 (201325.78.E5), read-out: EC50 of the forskolin response) [nM]	fold of induction ([2]; 384-well plate, induced with 20 forskolin (so in the source), 15 minutes) [fold]	EC50 ([2]; Homo sapiens, 0.25 h, HEK293 stably expressing CP234-Luc/RIIB, 96 well, luminescence at 15 minutes) [nM]	increase in light output from transfected cells [3]	increase in light output ([4]; HEK293 cells stably expressing CPM91-hRL/RIIβB, isopreterenol and forskolin treatment)	increase in light output from transfected cells ([4]; HEK 293 transiently transfected with CPM-hRL Luc/RIIβB (X=4, Y=20) constructs, 10 μM isopreterenol or 50 μM forskolin alone)	decrease in luminescence plus Akt1/PKB as compared to no Akt1/PKB [5]	fold reduction in luminescence activity in the presence of calcium [6]
C=C[C@@]1(C)CC(=O)[C@]2(O)[C@@]3(C)[C@@H](O)CCC(C)(C)[C@@H]3[C@H](O)[C@H](OC(C)=O)[C@@]2(C)O1 [forskolin]	3.6	59	6.1	360	approximately 2 fold	about 5 fold	approximately 2 fold	–	–
pBFB22: wild-type firefly luciferase control	–	–	–	–	–	–	–	did not change	No response
